Here are results for twelve compounds from patent US8278465B2, “Coumarin derivative having antitumor activity” (Chugai Seiyaku Kabushiki Kaisha, priority 2006, dated 2012).

Molecules are shown by their SMILES. pIC50: −log10 of the molar value. Read-outs that look alike come from different tables or passages of the source.

Series [1] relates to human colon cancer cell line HCT116. The experiment in a line: Measurement of cell proliferation inhibitory activity (Cell Counting Kit-8). Format: cell-based. The note with it: Homo sapiens, HCT-116, 96 h, HCT116, 4 days incubation, read-out: IC50 (50% proliferation inhibitory concentration). The protocol: The cell proliferation inhibitory activities of the compounds and salts shown in Tables 1-1, 1-2 and Table 2 were measured as follows, using the human colon cancer cell line HCT116 (American Type Culture Collection, VA, USA). 2000 to 3000 cells per well of the human colon cancer cell line HCT116 was placed in a 96-well culture plate, a predetermined concentration (0.00038 μM, 0.00076 μM, 0.0015 μM, 0.0031 μM, 0.0061 μM, 0.012 μM, 0.024 μM, 0.049 μM, 0.098 μM, 0.195 μM, 0.39 μM, 0.78 μM, 1.56 μM, 3.13 μM, 6.25 μM, 12.5 μM, 25 μM or 50 μM) of the test substance was added thereto, and the mixture was then incubated at 37° C. under 5% CO2 environment for 4 days. On day 4 of incubation, the Cell Counting Kit-8 solution (Dojindo Laboratories) was added, the absorbance (measurement wavelength: 450 nm; reference wavelength: 615 nm) was measured following the protocol attached to the kit, and the 50% proliferation inhibitory concentration (IC50) was calculated.
On the technique in general: Tetrazolium dyes change colour on reduction, which living cells bring about.

Series [2] can be described thus: Calculation of AUC value (plasma concentration after oral administration). Format: in vivo. Conditions: BALB/c (nu/nu), mouse, mice, 100 mg/kg body weight, plasma 15 min to 24 h, trapezoidal method, read-out: AUC (area under the blood concentration-time curve). The method, then: The AUC (area under the blood concentration-time curve) values of the compounds and salts shown in Table 2 (only compound 1j-2-16-2 is Na salt; the others are free form) were calculated by administering the test substance to an animal and measuring its concentration in plasma. As the animals, BALB/c (nu/nu) mice (4 to 6 weeks old) procured from Japan Charles River Laboratories were used after a one-week taming period. As for the test substances other than Comp. 1, 5 mg/mL of the substance solution was given at 0.2 mL/10 g body weight (dose of the test substance: 100 mg/kg body weight). As for Comp. 1, 10 mg/mL of the substance solution was given at 0.2 mL/10 g body weight (dose of the test substance: 200 mg/kg body weight). Administration of the substance solution to a mouse was performed forcibly using an oral feeding tube. Blood was collected from the eye pit 15 minutes, 2 hours, 7 hours and 24 hours after administration of the substance solution, using a hematocrit tube treated with heparin. Paraoxon (final concentration: 1 mM) was added to the collected blood as a stabilizer, the mixture was centrifuged at 10000 rpm for 3 minutes, and plasma was separated. The plasma was stored in a freezer set to −80° C. until the time of measurement. The measurement was carried out as follows. 100 μL of distilled water to which the internal standard substance (a structural homolog, concentration adjusted appropriately depending on the compound used) had been added was added to 5 μL of the plasma, and then, a measurement sample was prepared through solid phase extraction processing using an Oasis HLB μElution Plate (Waters), and was analyzed by LC/MS/MS. The plasma concentration was calculated using a calibration curve prepared based on the ratio of standard substance to internal standard substance in control plasma of mice. The AUC was calculated from the data of plasma concentration of the drug by the trapezoidal method using Microsoft Excel 2003 (Microsoft).

Regarding `CNS(=O)(=O)Nc1nccc(Cc2c(C)c3ccc(Oc4ncccn4)cc3oc2=O)c1F` [Compound 1j-2-16-2, 3-{2-(Methylaminosulfonyl)amino-3-fluoropyridin-4-ylmethyl}-4-methyl-7-(pyrimidin-2-yloxy)-2-oxo-2H-1-benzopyran], the pIC50 in series [1] (Table 2) was 7.39. Also, the AUC in series [2] was 3200 µM·h.

Take `CNS(=O)(=O)Nc1cccc(Cc2c(C)c3cc(C)c(Oc4nccs4)cc3oc2=O)c1` [Compound 1j-3-8-2, 3-{3-(Methylaminosulfonyl)aminobenzyl}-4-methyl-7-(thiazol-2-yloxy)-6-methyl-2-oxo-2H-1-benzopyran]: the pIC50 in series [1] (Table 2) was 7.01. The AUC in series [2] was 149 µM·h. In the case of `CNS(=O)(=O)Nc1cc(Cc2c(C)c3cc(Cl)c(Oc4ncccn4)cc3oc2=O)ccn1` [Compound 1j-2-12-2, 3-{2-(Methylaminosulfonyl)aminopyridin-4-ylmethyl}-4-methyl-7-(pyrimidin-2-yloxy)-6-chloro-2-oxo-2H-1-benzopyran], the pIC50 in series [1] (Table 2) was 6.55. Further, in series [2], the AUC was 252 µM·h. Consider `CNS(=O)(=O)Nc1cccc(Cc2c(C)c3ccc(Oc4ncccn4)cc3oc2=O)c1F` [Compound 1j-2-4-2, 3-{2-Fluoro-3-(methylaminosulfonyl)aminobenzyl}-4-methyl-7-(pyrimidin-2-yloxy)-2-oxo-2H-1-benzopyran], for which the pIC50 in series [1] (Table 2) is 7.35. In addition, in series [2], the AUC was 425 µM·h. As for `Cc1c(Cc2cccc(NS(N)(=O)=O)c2F)c(=O)oc2cc(Oc3ncccn3)ccc12` [Compound 1j-2-4-1, 3-{2-Fluoro-3-(aminosulfonyl)aminobenzyl}-4-methyl-7-(pyrimidin-2-yloxy)-2-oxo-2H-1-benzopyran], the pIC50 in series [1] (Table 2) is 6.83. Also, the AUC in series [2] is 811 µM·h. In the case of `CNS(=O)(=O)Nc1cccc(Cc2c(C)c3ccc(OC(=O)N(C)C)cc3oc2=O)n1` [Compound 1j-1-13-2, Dimethylcarbamic acid 4-methyl-3-{6-(methylaminosulfonyl)aminopyridin-2-ylmethyl}-2-oxo-2H-1-benzopyran-7-yl ester], the pIC50 in series [1] (Table 2) is 6.57. Further, the AUC in series [2] (in vivo) was 314 µM·h. With `CNS(=O)(=O)Nc1cccc(Cc2c(C)c3cc(F)c(Oc4ncccn4)cc3oc2=O)c1F` [Compound 1j-2-5-2, 3-{2-Fluoro-3-(methylaminosulfonyl)aminobenzyl}-4-methyl-7-(pyrimidin-2-yloxy)-6-fluoro-2-oxo-2H-1-benzopyran], the pIC50 in series [1] (Table 2) is 7.12. Further, the AUC in series [2] was 344 µM·h.

Turning to `CNS(=O)(=O)Nc1cccc(Cc2c(CF)c3ccc(Oc4ncccn4)cc3oc2=O)c1F` [Compound 1j-2-4-2F, 3-{2-Fluoro-3-(methylaminosulfonyl)aminobenzyl}-4-fluoromethyl-7-(pyrimidin-2-yloxy)-2-oxo-2H-1-benzopyran], the pIC50 in series [1] (Table 2) was 6.78. Moreover, the AUC in series [2] was 317 µM·h. In the case of `CCc1c(Cc2ccnc(NS(=O)(=O)NC)c2F)c(=O)oc2cc(Oc3ncccn3)c(C)cc12` [Compound 1j-2-19-2Me, 3-{2-(Methylaminosulfonyl)amino-3-fluoropyridin-4-ylmethyl}-4-ethyl-6-methyl-7-(pyrimidin-2-yloxy)-2-oxo-2H-1-benzopyran], the pIC50 in series [1] (Table 1-2) is 8.08.

As to `CNS(=O)(=O)Nc1nccc(Cc2c(C)c3cc(C)c(Oc4nccs4)cc3oc2=O)c1Cl` [Compound 1j-3-44-2, 3-{2-(Methylaminosulfonyl)amino-3-chloropyridin-4-ylmethyl}-4-methyl-6-methyl-7-(thiazol-2-yloxy)-2-oxo-2H-1-benzopyran], the pIC50 in series [1] (Table 1-2) is 7.89.

On to `Cc1c(Cc2cccc(NS(N)(=O)=O)c2F)c(=O)oc2cc(OC(=O)N(C)C)ccc12` [Compound 1j-1-4-1, Dimethylcarbamic acid 3-(3-aminosulfonylamino-2-fluoro-benzyl)-4-methyl-2-oxo-2H-1-benzopyran-7-yl ester], for which the pIC50 in series [1] (Table 1-1) was 7.75. On the same count and under the same terms, the result for `CNS(=O)(=O)Nc1cccc(Cc2c(C)c3cc(C#N)c(OC(=O)N(C)C)cc3oc2=O)c1` [Compound 1j-1-9-2] reads 7.62.
